Data set [1] in a line: Visible lambda max of the activated form in polymer test squares (Varian Cary 3 UV-Visible spectrophotometer). The data set is classed as physicochemical. Particulars: activated (colored) form in test square of BPA 2EO DMA / poly(ethylene glycol) 600 dimethacrylate, 1.5×10^-3 molal. The method, then: (§1) Testing was done with the photochromic compounds prepared in Examples 1-11 in the following manner. A quantity of each photochromic compound calculated to yield a 1.5×10^-3 molal solution was added to a flask containing 50 grams of a monomer blend of 4 parts ethoxylated bisphenol A dimethacrylate (BPA 2EO DMA), 1 part poly(ethylene glycol) 600 dimethacrylate, and 0.033 weight percent 2,2'-azobis(2-methyl propionitrile) (AIBN). Each photochromic compound was dissolved into the monomer blend by stirring and gentle heating. After a clear solution was obtained, it was poured into a flat sheet mold having the interior dimensions of 2.2 mm×6 inches (15.24 cm)×6 inches (15.24 cm). The mold was sealed and placed in a horizontal air flow, programmable oven programmed to increase the temperature from 40° C. to 95° C. over […], hold the temperature at 95° C. for 3 hours, lower it to 60° C. over a 2 hour interval and then hold at 60° C. for 16 hours. After the mold was opened, the polymer sheet was cut using a diamond blade saw into 2 inch (5.1 centimeters) test squares.
The Δ OD/min, which represents the sensitivity of the photochromic compound's response to UV light, was measured over the first five (5) seconds of UV exposure, then expressed on a per minute basis. The saturation optical density (Δ OD@ Saturation) was taken under identical conditions as the Δ OD/min, except UV exposure was continued for 15 minutes. The lambda max (Vis) is the wavelength in nanometers (nm) in the visible spectrum at which the maximum absorption of the activated (colored) form of the photochromic compound in a test square occurs. The lambda max (Vis) wavelength was determined by testing the photochromic test square polymerizates of Part A in a Varian Cary 3 UV-Visible spectrophotometer. The Bleach Rate (T 1/2) is the time interval in seconds for the absorbance of the activated form of the photochromic compound in the test squares to reach one half the highest absorbance at room temperature (72° F., 22.20C.) after removal of the source of activating light.

Data set [2] can be described thus: Photochromic response of polymer test squares on an optical bench. The data set is classed as physicochemical. The conditions noted are these: for ΔOD @ Saturation: UV exposure continued for 15 minutes; for ΔOD @ Saturation / Sensitivity ΔOD/min: 72° F. (22.2° C.); for Sensitivity ΔOD/min: first five (5) seconds of UV exposure, expressed per minute; for Bleach Rate T 1/2: time for absorbance of activated form to reach one half the highest absorbance at room temperature (72° F.) after removal of activating light. The protocol:
as §1
The photochromic test squares prepared in Part A were tested for photochromic response on an optical bench. Prior to testing on the optical bench, the photochromic test squares were exposed to 365 nanometer ultraviolet light for about 15 minutes to activate the photochromic compounds and then placed in a 76° C. oven for about 15 minutes to bleach or inactivate the photochromic compounds. The test squares were then cooled to room temperature, exposed to fluorescent room lighting for at least 2 hours and then kept covered for at least 2 hours prior to testing on an optical bench maintained at 72° F. (22.2° C.). The bench was fitted with a 150 watt Xenon arc lamp, a remote controlled shutter, a copper sulfate bath acting as a heat sink for the arc lamp, a Schott WG-320 nm cut-off filter which removes short wavelength radiation; neutral density filter(s) and a sample holder in which the square to be tested was inserted. The power output of the optical bench, i.e., the dosage of light that the sample lens would be exposed to, was calibrated with a photochromic test square used as a reference standard. […] The UV-A detector was placed into the sample holder and the light output was measured. Adjustments to the power output were made by increasing or decreasing the lamp wattage or by adding or removing neutral density filters in the light path.
A monitoring, collimated beam of light from a tungsten lamp was passed through the square at a small angle (approximately […]) normal to the square. After passing through the square, the light from the tungsten lamp was directed to a detector through Spectral Energy Corp. GM-200 monochromator set at the previously determined visible lambda max of the photochromic compound being measured. The output signals from the detector were processed by a radiometer.
Change in optical density (ΔOD) was determined by inserting a test square in the bleached state into the sample holder, adjusting the transmittance scale to 100%, opening the shutter from the Xenon lamp to provide ultraviolet radiation to change the test square from the bleached state to an activated (i.e., darkened) state, measuring the transmittance in the activated state, and calculating the change in optical density according to the formula: ΔOD=log(100/% Ta), where % Ta is the percent transmittance in the activated state and the logarithm is to the base 10.
The Δ OD/min, which represents the sensitivity of the photochromic compound's response to UV light, was measured over the first five (5) seconds of UV exposure, then expressed on a per minute basis. The saturation optical density (Δ OD@ Saturation) was taken under identical conditions as the Δ OD/min, except UV exposure was continued for 15 minutes. […]

SMILES strings stand for the structures.

Consider `COc1ccc(C2(c3ccccc3)C=Cc3c4c(c5ccccc5c3O2)-c2cc(OC)c(OC)cc2C(C)(C)O4)cc1` (stereo not drawn) [Compound 8, 6-(4-methoxyphenyl)-6-phenyl-12,13-dimethoxy-10,10-dimethyl-6,10-dihydro[2]benzopyrano [3',4':3,4]naphtho(1,2-b)pyran], for which the “lambda max (Vis)” value in data set [1] stood at 602 nanometers. Besides, in data set [2], the “ΔOD @ Saturation” value was determined as 0.21, the “Sensitivity ΔOD/min” value was 0.08 ΔOD/min and the “Bleach Rate T 1/2” value was 216 s.
For the molecule `COc1ccc(C2(c3ccc(OC)cc3)C=Cc3c(c4c5ccc(OC)cc5c(=O)oc4c4ccccc34)O2)cc1` [Compound 9A, 2,2-bis(4-methoxyphenyl)-12-methoxy-10-oxo-2,10-dihydro[2]benzopyrano[4',3':3,4]naphtho(2,1-b)pyran], in data set [1], the “lambda max (Vis)” value is on record as 478 nanometers. Besides, in data set [2], the “ΔOD @ Saturation” value is 0.12, the “Sensitivity ΔOD/min” value was 0.25 ΔOD/min and the “Bleach Rate T 1/2” value was found to be 24 s.
`O=c1oc2ccccc2c2c1c1c(c3ccccc32)OC(c2ccccc2)(c2ccccc2)C=C1` [Compound 10, 6,6-diphenyl-9-oxo-6,9-dihydro[1]benzopyrano[3',4':3,4]naphtho(1,2-b)pyran]: the “lambda max (Vis)” value in data set [1] was 484 nanometers. Besides, in data set [2], the “ΔOD @ Saturation” value is given as 0.26, the “Sensitivity ΔOD/min” value was 0.69 ΔOD/min and the “Bleach Rate T 1/2” value was determined as 19 s.
With `O=c1oc2c3ccc4c(c3ccc2c2ccccc12)C=CC(c1ccccc1)(c1ccccc1)O4` [Compound 11, 3,3-diphenyl-8-oxo-3,8-dihydro[2]benzopyrano[3',4':5,6]naphtho(2,1-b)pyran], in data set [1], the “lambda max (Vis)” value was found to be 466 nanometers. For the same molecule, in data set [2], the “ΔOD @ Saturation” value is 0.02 and the “Sensitivity ΔOD/min” value is given as 0.12 ΔOD/min.

These data come from patent publication US6022495A, “Photochromic benzopyrano-fused naphthopyrans” (Transitions Optical, Inc., priority 1998, dated 2000).
